Patent US7307088B2, “Substituted anthranilic amide derivatives and methods of use” (Amgen Inc., priority 2002, dated 2007)
pIC50: −log10 of the molar value.

Test system: VEGF-stimulated HUVEC proliferation (Human Umbilical Vein Endothelial cells)
Experiment: HUVEC Proliferation Assay
Type: cell-based
Details: 72 h, CyQuant dye, read-out: inhibited VEGF-stimulated HUVEC proliferation at a level (IC50 values determined)
Method: Human Umbilical Vein Endothelial cells are purchased from Clonetics, Inc., as cryopreserved cells harvested from a pool of donors. These cells, at passage 1, are thawed and expanded in EBM-2 complete medium, until passage 2 or 3. The cells are trypsinized, washed in DMEM+10% FBS+antibiotics, and spun at 1000 rpm for 10 min. Prior to centrifugation of the cells, a small amount is collected for a cell count. After centrifugation, the medium is discarded, and the cells are resuspended in the appropriate volume of DMEM+10% FBS+antibiotics to achieve a concentration of 3×10^5 cells/mL. Another cell count is performed to confirm the cell concentration. The cells are diluted to 3×10^4 cells/mL in DMEM+10% FBS+antibiotics, and 100 μL of cells are added to a 96-well plate. The cells are incubated at 37° C. for 22 h.
Prior to the completion of the incubation period, compound dilutions are prepared. Five-point, five-fold serial dilutions are prepared in DMSO, at concentrations 400-fold greater than the final concentrations desired. 2.5 μL of each compound dilution are diluted further in a total of 1 mL DMEM+10% FBS+antibiotics (400× dilution). Medium containing 0.25% DMSO is also prepared for the 0 μM compound sample. At the 22 h timepoint, the medium is removed from the cells, and 100 μL of each compound dilution is added. The cells are incubated at 37° C. for 2-3 h.
During the compound pre-incubation period, the growth factors are diluted to the appropriate concentrations. Solutions of DMEM+10% FBS+antibiotics, containing either VEGF or bFGF at the following concentrations: 50, 10, 2, 0.4, 0.08, and 0 ng/mL are prepared. For the compound-treated cells, solutions of VEGF at 550 ng/mL or bFGF at 220 ng/mL for 50 ng/mL or 20 ng/mL final concentrations, respectively, are prepared since 10 μL of each will be added to the cells (110 μL final volume). At the appropriate time after adding the compounds, the growth factors are added. VEGF is added to one set of plates, while bFGF is added to another set of plates. For the growth factor control curves, the media on wells B4-G6 of plates 1 and 2 are replaced with media containing VEGF or bFGF at the varying concentrations (50-0 ng/mL). The cells are incubated at 37° C. for an additional 72 h.
At the completion of the 72 h incubation period, the medium is removed, and the cells are washed twice with PBS. After the second wash with PBS, the plates are tapped gently to remove excess PBS, and the cells are placed at −70° C. for at least 30 min. The cells are thawed and analyzed using the CyQuant fluorescent dye (Molecular Probes C-7026), following the manufacturer's recommendations. The plates are read on a Victor/Wallac 1420 workstation at 485 nm/530 nm (excitation/emission). Raw data are collected and analyzed using a 4-parameter fit equation in XLFit. IC50 values are then determined.

`CC(=O)N1CC(C)(C)c2ccc(NC(=O)c3ccccc3NCc3ccc(F)cc3)cc21` [Example 3, N-(1-Acetyl-3,3-dimethyl-2,3-dihydro-1H-indol-6-yl)-2-(4-fluoro-benzylamino)-benzamide] and `CC(=O)N1CC(C)(C)c2ccc(NC(=O)c3ccccc3NCc3cc[n+]([O-])cc3)cc21` [Example 10, N-(1-Acetyl-3,3-dimthyl-2,3-dihydro-1H-indol-6-yl)-2-[(1-oxy-pyridin-4-ylmethyl)-amino]-benzamide] cannot be ordered by pIC50: > 6.00 for the first, > 6.00 for the second.

`CN1CCN(C(=O)N2CC(C)(C)c3ccc(NC(=O)c4ccccc4NCc4ccc(F)cc4)cc32)CC1` [Example 8, N-[3,3-Dimethyl-1-(4-methyl-piperazine-1-carbonyl)-2,3-dihydro-1H-indol-6-yl]-2-(4-fluoro-benzylamino)-benzamide] and `CC1(C)CNCc2cc(NC(=O)c3ccc(F)cc3NCc3ccc(F)cc3)ccc21` [Example 107, N-(4,4-Dimethyl-1,2,3,4-tetrahydro-isoquinolin-7-yl)-4-fluoro-6-(4-fluoro-benzylamino)-benzamide] cannot be ordered by pIC50: > 6.00 for the first, > 6.00 for the second.

`CC(=O)N1Cc2cc(NC(=O)c3ccccc3NCc3ccnc4ccccc34)ccc2C(C)(C)C1` [Example 13, N-(2-Acetyl-4,4-dimthyl-1,2,3,4-tetrahydro-isoquinolin-7-yl)-2-[(quinolin-4-ylmethyl)-amino]-benzamide] and `CC1(C)CNCc2cc(NC(=O)c3ccccc3NCc3cccc4nccnc34)ccc21` [Example 124, N-(4,4-Dimethyl-1,2,3,4-tetrahydro-isoquinolin-7-yl)-2-[(quinoxalin-5-ylmethyl)-amino]-benzamide] cannot be ordered by pIC50: > 6.00 for the first, > 6.00 for the second.

`CC1(C)CNCc2cc(NC(=O)c3cc(F)c(F)cc3NCc3ccc(F)cc3)ccc21` [Example 108, N-(4,4-Dimethyl-1,2,3,4-tetrahydro-isoquinolin-7-yl)-3,4-difluoro-6-(4-fluoro-benzylamino)-benzamide] and `CC1(C)CNCc2cc(NC(=O)c3ccccc3NCc3c[nH]c4ncccc34)ccc21` [Example 113, N-(4,4-Dimethyl-1,2,3,4-tetrahydro-isoquinolin-7-yl)-2-[(1H-pyrrolo [2,3-b]pyridin-3-ylmethyl)-amino]-benzamide] cannot be ordered by pIC50: > 6.00 for the first, > 6.00 for the second.

`CC(Nc1ccccc1C(=O)Nc1ccc2c(c1)CN(C(=O)OC(C)(C)C)CC2(C)C)c1ccnc(N)n1` (stereo not drawn) [Example 126, tert-Butyl 7-{2-[1-(2-amino-pyrimidin-4-yl)-ethylamino]-benzoylamino}-4,4-dimethyl-3,4-dihydro-1H-isoquinoline-2-carboxylate] and `CC(Nc1ccccc1C(=O)Nc1ccc2c(c1)CNCC2(C)C)c1ccnc(N)n1` (stereo not drawn) [Example 127, 2-[1-(2-Amino-pyrimidin-4-yl)-ethylamino]-N-(4,4-dimethyl-1,2,3,4-tetrahydro-isoquinolin-7-yl)-benzamide] cannot be ordered by pIC50: > 6.00 for the first, > 7.00 for the second.

`CNc1nccc([C@H](C)Nc2ccccc2C(=O)Nc2ccc3c(c2)CNCC3(C)C)n1` [Example 130, (S)—N-(4,4-Dimethyl-1,2,3,4-tetrahydro-isoquinolin-7-yl)-2-[1-(2-methylamino-pyrimidin-4-yl)-ethylamino]-benzamide] and `CNc1nccc([C@@H](C)Nc2ccccc2C(=O)Nc2ccc3c(c2)N(C(C)=O)CC32CC2)n1` [Example 132, N-(1-Acetyl-1′,2′-dihydrospiro[cyclopropane-1,3′-[3H]indol]-6′-yl)-2-[[(1R)-1-[2-(methylamino)-4-pyrimidinyl]ethyl]amino]-benzamide] cannot be ordered by pIC50: > 6.00 for the first, > 6.00 for the second.
